Values belong to the molecule of their own block, whether it stands above or below them.
What was measured:
[1] = target: T1, Serine/threonine-protein kinase Nek3 (Homo sapiens) (UniProt P51956); assay: Selectivity interaction (ActivX KiNativ screen (kinase selectivity in THP-1 cell lysates)) EUB0000639a NEK3; assay type: subcellular; settings: lysate
T1 sequence (whole entry): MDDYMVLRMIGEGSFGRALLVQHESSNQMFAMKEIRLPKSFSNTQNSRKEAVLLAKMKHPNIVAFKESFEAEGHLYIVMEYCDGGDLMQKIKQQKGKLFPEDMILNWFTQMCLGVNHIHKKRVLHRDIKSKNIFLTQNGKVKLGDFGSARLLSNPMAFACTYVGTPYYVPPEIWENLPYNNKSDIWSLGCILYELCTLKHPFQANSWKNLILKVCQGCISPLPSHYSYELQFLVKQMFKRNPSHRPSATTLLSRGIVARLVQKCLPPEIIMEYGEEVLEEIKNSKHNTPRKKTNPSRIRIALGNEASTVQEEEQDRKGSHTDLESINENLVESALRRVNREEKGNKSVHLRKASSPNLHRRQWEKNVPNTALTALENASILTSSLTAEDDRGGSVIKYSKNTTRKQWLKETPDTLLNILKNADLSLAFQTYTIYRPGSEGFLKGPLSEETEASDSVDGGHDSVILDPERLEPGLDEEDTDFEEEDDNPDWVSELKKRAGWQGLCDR

[2] = target: Fibroblast growth factor receptor 2 (Homo sapiens) (UniProt P21802); assay: Selectivity interaction (KinaseProfiler screening (Millipore)) EUB0000601a FGFR2; settings: at 3 µM
[3] = target: STE20-like serine/threonine-protein kinase (Homo sapiens, UniProt Q9H2G2); assay: Selectivity interaction (KinomeScan (DiscoverX)) EUB0001049a SLK; settings: at 1 µM
[4] = target: T2, Serine/threonine-protein kinase ULK2 (Homo sapiens) (UniProt Q8IYT8); assay: Selectivity interaction (Ambit KINOMEscan and KiNATiv profiling in Jurkat cells) EUB0000090b ULK2; assay type: cell-based; settings: at 1 µM
T2 sequence (whole entry): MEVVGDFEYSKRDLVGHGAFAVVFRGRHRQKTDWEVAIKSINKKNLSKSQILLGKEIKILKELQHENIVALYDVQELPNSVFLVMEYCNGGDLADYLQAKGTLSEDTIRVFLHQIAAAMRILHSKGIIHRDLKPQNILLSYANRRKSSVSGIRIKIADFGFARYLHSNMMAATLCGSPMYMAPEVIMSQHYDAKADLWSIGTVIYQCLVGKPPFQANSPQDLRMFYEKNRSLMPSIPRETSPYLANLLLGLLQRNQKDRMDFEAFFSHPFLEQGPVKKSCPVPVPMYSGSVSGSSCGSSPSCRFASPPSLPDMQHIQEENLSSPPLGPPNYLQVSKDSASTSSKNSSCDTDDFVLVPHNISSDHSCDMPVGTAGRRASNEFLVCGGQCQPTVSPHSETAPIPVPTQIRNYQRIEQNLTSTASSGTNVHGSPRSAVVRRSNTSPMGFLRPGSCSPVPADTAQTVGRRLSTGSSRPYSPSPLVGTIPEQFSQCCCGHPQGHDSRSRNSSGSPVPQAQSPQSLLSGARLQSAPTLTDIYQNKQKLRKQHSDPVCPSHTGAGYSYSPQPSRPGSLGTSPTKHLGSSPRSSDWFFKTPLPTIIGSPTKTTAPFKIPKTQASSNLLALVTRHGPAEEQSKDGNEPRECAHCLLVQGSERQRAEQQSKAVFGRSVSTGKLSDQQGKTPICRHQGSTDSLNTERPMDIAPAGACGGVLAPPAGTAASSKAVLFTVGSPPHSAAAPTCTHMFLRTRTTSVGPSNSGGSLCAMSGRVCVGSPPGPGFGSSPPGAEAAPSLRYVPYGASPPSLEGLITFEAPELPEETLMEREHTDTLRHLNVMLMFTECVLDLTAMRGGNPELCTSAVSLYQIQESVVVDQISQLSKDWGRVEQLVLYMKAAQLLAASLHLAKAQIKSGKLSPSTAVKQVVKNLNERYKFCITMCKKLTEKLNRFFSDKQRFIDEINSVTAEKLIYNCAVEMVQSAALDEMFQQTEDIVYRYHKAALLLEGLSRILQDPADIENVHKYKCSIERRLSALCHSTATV

[5] = tested on: eIF-2-alpha kinase GCN2 (Homo sapiens), Q9P2K8 [S808G]; assay: Selectivity interaction (KinomeScan (DiscoverX)) EUB0000655a EIF2AK4; settings: at 10 µM
[6] = target: T3, Serine/threonine-protein kinase Chk1 (Homo sapiens) (UniProt O14757); settings: at 10 µM
T3 sequence (whole entry): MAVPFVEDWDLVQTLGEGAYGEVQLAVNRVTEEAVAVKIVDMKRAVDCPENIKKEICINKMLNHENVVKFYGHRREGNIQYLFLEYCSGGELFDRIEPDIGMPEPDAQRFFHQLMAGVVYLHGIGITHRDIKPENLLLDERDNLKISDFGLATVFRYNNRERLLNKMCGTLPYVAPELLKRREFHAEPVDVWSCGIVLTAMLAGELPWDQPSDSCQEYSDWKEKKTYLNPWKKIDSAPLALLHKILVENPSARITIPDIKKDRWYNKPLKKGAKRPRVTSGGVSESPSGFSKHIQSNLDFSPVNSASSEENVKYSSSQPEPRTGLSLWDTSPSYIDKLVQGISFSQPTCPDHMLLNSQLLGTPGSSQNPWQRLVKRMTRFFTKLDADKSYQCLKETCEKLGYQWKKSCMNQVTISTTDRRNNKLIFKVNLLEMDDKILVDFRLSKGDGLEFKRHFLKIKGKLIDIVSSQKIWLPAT

Fibroblast growth factor receptor 2 (Homo sapiens), sequence (P21802 22-821 limits assumed): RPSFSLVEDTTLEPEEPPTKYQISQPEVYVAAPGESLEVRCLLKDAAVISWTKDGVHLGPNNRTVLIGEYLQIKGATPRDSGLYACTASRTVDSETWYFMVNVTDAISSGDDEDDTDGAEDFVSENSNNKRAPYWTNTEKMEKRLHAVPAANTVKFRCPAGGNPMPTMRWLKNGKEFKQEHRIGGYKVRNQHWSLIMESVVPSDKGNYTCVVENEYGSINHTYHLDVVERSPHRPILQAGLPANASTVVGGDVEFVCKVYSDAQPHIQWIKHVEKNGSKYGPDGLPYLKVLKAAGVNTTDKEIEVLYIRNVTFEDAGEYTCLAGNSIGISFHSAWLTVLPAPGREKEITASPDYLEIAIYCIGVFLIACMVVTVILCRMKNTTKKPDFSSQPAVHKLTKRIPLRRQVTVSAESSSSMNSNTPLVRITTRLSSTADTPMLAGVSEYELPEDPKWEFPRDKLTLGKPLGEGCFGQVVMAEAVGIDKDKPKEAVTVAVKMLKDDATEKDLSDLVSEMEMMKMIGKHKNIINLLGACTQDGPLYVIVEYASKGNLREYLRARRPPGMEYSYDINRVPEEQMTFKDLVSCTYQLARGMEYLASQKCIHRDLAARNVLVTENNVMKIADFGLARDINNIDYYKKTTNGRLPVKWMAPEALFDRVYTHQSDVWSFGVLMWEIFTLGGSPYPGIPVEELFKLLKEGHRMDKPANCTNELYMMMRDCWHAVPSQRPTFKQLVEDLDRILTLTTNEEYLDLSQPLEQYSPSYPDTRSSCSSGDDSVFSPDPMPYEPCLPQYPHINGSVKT
STE20-like serine/threonine-protein kinase, sequence (Q9H2G2 whole entry, looked up): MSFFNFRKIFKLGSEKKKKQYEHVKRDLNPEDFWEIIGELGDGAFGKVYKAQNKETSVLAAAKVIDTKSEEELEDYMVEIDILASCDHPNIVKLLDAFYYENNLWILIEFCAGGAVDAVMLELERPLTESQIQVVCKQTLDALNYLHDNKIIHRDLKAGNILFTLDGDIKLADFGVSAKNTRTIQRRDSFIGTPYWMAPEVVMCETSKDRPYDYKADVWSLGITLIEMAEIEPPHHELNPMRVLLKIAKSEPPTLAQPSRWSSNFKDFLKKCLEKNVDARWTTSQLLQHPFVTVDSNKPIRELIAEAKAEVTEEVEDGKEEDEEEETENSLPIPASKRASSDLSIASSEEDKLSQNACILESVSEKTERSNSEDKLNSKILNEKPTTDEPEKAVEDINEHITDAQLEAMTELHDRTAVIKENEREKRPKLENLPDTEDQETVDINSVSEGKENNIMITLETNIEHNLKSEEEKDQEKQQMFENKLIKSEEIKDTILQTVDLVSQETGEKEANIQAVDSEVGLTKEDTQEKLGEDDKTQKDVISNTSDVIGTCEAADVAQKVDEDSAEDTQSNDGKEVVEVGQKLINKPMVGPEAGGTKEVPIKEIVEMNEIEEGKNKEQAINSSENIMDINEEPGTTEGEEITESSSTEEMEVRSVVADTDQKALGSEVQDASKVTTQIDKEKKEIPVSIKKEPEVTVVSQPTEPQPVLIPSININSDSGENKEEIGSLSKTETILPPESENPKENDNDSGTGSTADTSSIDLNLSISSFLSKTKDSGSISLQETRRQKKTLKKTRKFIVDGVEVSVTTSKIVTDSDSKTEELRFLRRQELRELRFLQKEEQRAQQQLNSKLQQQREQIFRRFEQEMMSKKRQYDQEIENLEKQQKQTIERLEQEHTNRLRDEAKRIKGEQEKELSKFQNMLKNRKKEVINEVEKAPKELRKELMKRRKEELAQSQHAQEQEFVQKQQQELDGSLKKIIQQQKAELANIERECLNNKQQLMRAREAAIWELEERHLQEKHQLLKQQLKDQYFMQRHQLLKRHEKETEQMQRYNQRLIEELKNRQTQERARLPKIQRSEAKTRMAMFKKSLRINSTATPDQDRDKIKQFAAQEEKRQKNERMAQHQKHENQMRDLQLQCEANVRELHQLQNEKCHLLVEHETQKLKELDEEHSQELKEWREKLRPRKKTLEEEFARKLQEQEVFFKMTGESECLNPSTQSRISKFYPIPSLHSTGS
eIF-2-alpha kinase GCN2 (Homo sapiens), Q9P2K8 [S808G], sequence (Q9P2K8 whole entry S808G): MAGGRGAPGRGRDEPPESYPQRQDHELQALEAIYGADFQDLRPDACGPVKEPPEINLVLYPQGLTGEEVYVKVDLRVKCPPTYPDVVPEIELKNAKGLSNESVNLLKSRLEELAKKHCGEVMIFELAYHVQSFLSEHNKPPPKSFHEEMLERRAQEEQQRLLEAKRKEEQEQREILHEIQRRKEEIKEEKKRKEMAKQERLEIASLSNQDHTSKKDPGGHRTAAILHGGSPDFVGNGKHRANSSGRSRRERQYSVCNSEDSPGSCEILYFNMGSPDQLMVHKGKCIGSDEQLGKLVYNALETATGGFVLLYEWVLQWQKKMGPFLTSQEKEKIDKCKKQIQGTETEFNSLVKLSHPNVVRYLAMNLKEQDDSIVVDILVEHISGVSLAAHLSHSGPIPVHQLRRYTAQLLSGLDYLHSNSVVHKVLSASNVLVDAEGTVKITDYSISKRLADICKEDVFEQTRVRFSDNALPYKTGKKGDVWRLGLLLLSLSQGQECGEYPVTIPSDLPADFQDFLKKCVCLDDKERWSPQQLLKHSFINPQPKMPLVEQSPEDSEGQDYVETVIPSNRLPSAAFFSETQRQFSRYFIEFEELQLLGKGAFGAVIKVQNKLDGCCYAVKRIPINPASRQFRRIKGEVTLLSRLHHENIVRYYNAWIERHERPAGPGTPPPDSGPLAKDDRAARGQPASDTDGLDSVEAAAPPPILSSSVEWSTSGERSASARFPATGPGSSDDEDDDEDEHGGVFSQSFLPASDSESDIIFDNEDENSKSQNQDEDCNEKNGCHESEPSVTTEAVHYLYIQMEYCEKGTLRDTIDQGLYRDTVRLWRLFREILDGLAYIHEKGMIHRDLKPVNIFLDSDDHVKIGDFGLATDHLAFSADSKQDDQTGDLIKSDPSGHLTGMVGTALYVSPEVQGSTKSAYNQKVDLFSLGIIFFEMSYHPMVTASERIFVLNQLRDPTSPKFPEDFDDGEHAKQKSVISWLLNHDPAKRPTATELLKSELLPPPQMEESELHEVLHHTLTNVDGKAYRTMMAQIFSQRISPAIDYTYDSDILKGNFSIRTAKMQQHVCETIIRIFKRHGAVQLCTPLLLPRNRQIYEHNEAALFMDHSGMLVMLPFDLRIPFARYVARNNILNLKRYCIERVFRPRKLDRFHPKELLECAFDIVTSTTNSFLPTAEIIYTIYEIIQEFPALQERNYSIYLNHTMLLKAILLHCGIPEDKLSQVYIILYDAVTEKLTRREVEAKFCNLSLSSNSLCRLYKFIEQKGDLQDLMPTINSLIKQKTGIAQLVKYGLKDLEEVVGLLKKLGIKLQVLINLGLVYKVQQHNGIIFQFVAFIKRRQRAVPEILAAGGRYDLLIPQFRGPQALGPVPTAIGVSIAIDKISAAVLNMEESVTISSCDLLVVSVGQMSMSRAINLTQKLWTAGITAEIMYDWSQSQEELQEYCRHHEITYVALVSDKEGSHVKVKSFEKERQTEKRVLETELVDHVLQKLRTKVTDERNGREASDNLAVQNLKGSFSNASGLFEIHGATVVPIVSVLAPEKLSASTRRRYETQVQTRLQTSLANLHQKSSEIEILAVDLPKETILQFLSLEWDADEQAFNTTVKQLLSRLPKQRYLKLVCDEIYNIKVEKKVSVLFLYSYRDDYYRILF

% of inhibition ([1]; at 0.01 µM): -5.8% | % of inhibition ([1]; at 0.04 µM): -2.4% | % of inhibition ([1]; at 0.2 µM): 6.9% | % of inhibition ([1]; at 1 µM): -1.1% | % of inhibition ([1]; at 5 µM): -11.5%
SMILES: CC[C@@H]1[C@H](F)C(=O)N[C@@H]1COc1nccc2cc(C(N)=O)c(OC)cc12 [ZIMLOVISERTIB]

% of inhibition [2]: 50%
SMILES: CCc1cc(Nc2nccc(-c3c(-c4ccc(OC)c(C(=O)Nc5c(F)cccc5F)c4)nc4ccccn34)n2)c(OC)cc1N1CCC(N2CCN(S(C)(=O)=O)CC2)CC1

SMILES: COc1cc(Nc2nc(C)cc(-c3cnn4nc(OC)ccc34)n2)cc(C(F)(F)F)c1
% of control [3]: 88%

SMILES: CN(C)C/C=C/C(=O)Nc1ccc(C(=O)N2CCCC(Nc3ncc(Cl)c(-c4c[nH]c5ccccc45)n3)C2)cc1 (stereo not given)
% of control [4]: 100%

SMILES: CN(C)CCOc1ccc(-c2nc(-c3ccncc3)c(-c3ccc4c(c3)CC/C4=N\O)[nH]2)cc1
% of control [5]: 97%

SMILES: Cc1cc([C@@H](C)Nc2ccccc2C(=O)O)c2nc(N3CCOCC3)cc(=O)n2c1 [AZD-6482]
% of control [6]: 100%

— ChEMBL document CHEMBL5465560, “Selectivity Literature for EUbOPEN Chemogenomic Library” (2024)
